From publication PMC7450057, “Enhancing intracellular accumulation and target engagement of PROTACs with reversible covalent chemistry” (Nature Communications, 2020)
Several values for one entry are separate records, joined by “and”; a condition that tells them apart may be missing. Identical values can stand only once.

Columns and labels:
[1] = test system: Mino cells; test: AlamarBlue cell viability assay, Mino; type: cell-based; conditions: for Mino Cell Viability%: Figure 2f, 5 replicates
Description: (§1) The IC50 was calculated using GraphPad Prism software with a four-parameter dose-response curve fit.

[2] = molecular target: T1, BTK-NanoLuc fusion (Homo sapiens, UniProt Q06187); test: NanoBRET BTK in-cell target engagement assay; type: cell-based; conditions: Figure 3d, triplicates
T1 construct: host or cells: HEK 293T/17
T1 sequence (Q06187 whole entry, the tested form may be a part): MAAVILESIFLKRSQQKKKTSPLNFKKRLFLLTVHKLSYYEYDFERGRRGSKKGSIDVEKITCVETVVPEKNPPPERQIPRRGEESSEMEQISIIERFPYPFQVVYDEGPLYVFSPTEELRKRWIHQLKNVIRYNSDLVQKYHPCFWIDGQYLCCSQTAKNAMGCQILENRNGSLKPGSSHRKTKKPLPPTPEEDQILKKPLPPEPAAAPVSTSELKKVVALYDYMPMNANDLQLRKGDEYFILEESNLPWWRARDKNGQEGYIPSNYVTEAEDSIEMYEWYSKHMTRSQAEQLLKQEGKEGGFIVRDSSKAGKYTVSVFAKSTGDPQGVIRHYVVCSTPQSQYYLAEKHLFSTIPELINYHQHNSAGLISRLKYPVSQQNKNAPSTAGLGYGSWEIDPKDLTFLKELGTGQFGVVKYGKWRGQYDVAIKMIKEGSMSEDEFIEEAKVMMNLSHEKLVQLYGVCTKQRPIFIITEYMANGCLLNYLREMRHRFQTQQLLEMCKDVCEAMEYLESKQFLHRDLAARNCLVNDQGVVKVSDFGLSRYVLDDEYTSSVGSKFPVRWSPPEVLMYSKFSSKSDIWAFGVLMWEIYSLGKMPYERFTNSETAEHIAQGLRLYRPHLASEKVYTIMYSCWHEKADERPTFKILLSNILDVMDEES
Description: The target engagement assay for BTK or CRBN was from Promega (BTK kit, Cat. No. N2500; CRBN kit, Cat. No. CS1810C136) and was performed according to the manufacture’s instruction with some modifications. Briefly, HEK 293/T17 cells (ATCC) were transiently transfected with BTK-NanoLuc® fusion vector or NanoLuc®-CRBN fusion vector (Promega) in 0.125 M CaCl2 and 1x HBS. Forty-eight hours after transfection, the cells were resuspended in Opti-MEM medium (Life Technologies, Cat. No. 11058021) at the density of 2 × 10^5 cells per mL and were plated into 96-well plates (Corning, Cat. No. CLS3600). Cells were incubated with 1.0 µM (BTK) or 0.5 µM (CRBN) NanoBRET™ Tracer and serially diluted unlabeled BTK PROTAC compounds (from 10 to 0.0032 µM, 5-fold dilution) for 2 h at 37 °С with 5% CO2 in an incubator. After 2 h incubation, the 3X Nano-Glo® Substrate with NanoLuc® extracellular inhibitor were added to cells and developed for 3 min at room temperature. BRET signals were collected using a BioTek SYNERGY H1 microplate reader equipped with a 450/80-nm BP filter for donor emission and a 610-nm LP filter for acceptor emission. BRET Ratio was calculated with the equation: [(Acceptor sample/Donor sample)–(Acceptor no tracer control/Donor no tracer control)] × 1000. The IC50 of the compound against its BTK or CRBN tracer was calculated using GraphPad Prism software.

[3] = test system: MOLM-14 cells; test: AlamarBlue cell viability assay, MOLM-14; conditions: for MOLM-14 Cell Viability%: Figure 2f, 5 replicates; for Cell viability, MOML-14: Supplementary Figure 7, replicates
Description: as §1

[4] = molecular target: BTK (Homo sapiens, UniProt Q06187); test: BTK degradation in MOLM-14 cells (western blot); type: cell-based; set-up: endogenous in cells; host or cells: MOLM-14; conditions: MOLM-14 cells
BTK, sequence (Q06187 whole entry): as the sequence (Q06187 whole entry, the tested form may be a part) above

**Q.** With `Cc1c(NC(=O)c2ccc(C(C)(C)C)cc2)cccc1-c1cn(C)c(=O)c(Nc2ccc(C(=O)N3CCN(CCCCCCNC(=O)CNc4cccc5c4C(=O)N(C4CCC(=O)NC4=O)C5=O)CC3)cc2)n1` (centres unmarked) [DD-03-171, reference compound] as the molecule, how does the “Mino Cell Viability%” value ([1]; 1.00E-06 M) read?
**A.** 32.4788% and 32.2293% and 34.0942% and 35.4207% and 39.7021%

**Q.** And the “Mino Cell Viability%” value ([1]; 1.60E-09 M)?
**A.** 121.168% and 104.266% and 118.227% and 107.943% and 119.96%

**Q.** What about the “Mino Cell Viability%” value ([1]; 2.00E-07 M) of the same molecule?
**A.** 36.6289% and 34.2124% and 35.7227% and 37.3775% and 42.3025%

**Q.** And the “Mino Cell Viability%” value ([1]; 3.20E-10 M)?
**A.** 132.424% and 103.701% and 122.994% and 107.72% and 141.013%

**Q.** What about the “Mino Cell Viability%” value ([1]; 4.00E-08 M) of the same molecule?
**A.** 54.0832% and 46.6234% and 39.8335% and 52.888% and 75.1359%

**Q.** And the “Mino Cell Viability%” value ([1]; 5.00E-06 M)?
**A.** 39.9385% and 37.4432% and 38.9273% and 39.4395% and 47.3326%

**Q.** And the “Mino Cell Viability%” value ([1]; 8.00E-09 M)?
**A.** 56.5785% and 60.1245% and 102.834% and 110.123% and 118.502%

**Q.** What about the IC50 ([1]; Mino cells, 72 h, Alamar Blue) of the same molecule?
**A.** 50 nM

**Q.** And the “NanoBRET(%)” value ([2]; 1.00E-05 M)?
**A.** 22.6421% and 28.6973% and 22%

**Q.** What about the “NanoBRET(%)” value ([2]; 1.60E-08 M) of the same molecule?
**A.** 88.8537% and 90.4209% and 91.9881%

**Q.** What about the “NanoBRET(%)” value ([2]; 2.00E-06 M) of the same molecule?
**A.** 21.3125% and 25.7571% and 22.7507%

**Q.** And the “NanoBRET(%)” value ([2]; 3.20E-09 M)?
**A.** 94.8868% and 96.3909% and 104.805%

**Q.** What about the “NanoBRET(%)” value ([2]; 4.00E-07 M) of the same molecule?
**A.** 28.4685% and 42.1101% and 35.114%

**Q.** And the “NanoBRET(%)” value ([2]; 8.00E-08 M)?
**A.** 85.0919% and 75.63% and 91.5725%

**Q.** And the “MOLM-14 Cell Viability%” value ([3]; 1.00E-05 M)?
**A.** 97.5451% and 84.66% and 89.4149% and 67.5953% and 78.1969%

**Q.** What about the “MOLM-14 Cell Viability%” value ([3]; 1.60E-08 M) of the same molecule?
**A.** 83.9791% and 92.5848% and 65.981% and 62.9872% and 76.0308%

**Q.** And the “MOLM-14 Cell Viability%” value ([3]; 2.00E-06 M)?
**A.** 93.025% and 80.0636% and 90.2426% and 67.3429% and 78.4493%

**Q.** And the “MOLM-14 Cell Viability%” value ([3]; 3.20E-09 M)?
**A.** 93.7588% and 71.6575% and 86.4445% and 88.7633% and 72.8844%

**Q.** And the “MOLM-14 Cell Viability%” value ([3]; 4.00E-07 M)?
**A.** 97.2809% and 75.3792% and 70.6831% and 69.0687% and 74.7981%

**Q.** And the “MOLM-14 Cell Viability%” value ([3]; 6.40E-10 M)?
**A.** 106.497% and 80.5215% and 63.4862% and 80.6741% and 69.8495%

**Q.** What about the “MOLM-14 Cell Viability%” value ([3]; 8.00E-08 M) of the same molecule?
**A.** 102.353% and 96.782% and 97.1048% and 76.9172% and 82.8931%

**Q.** And the IC50 ([3]; read-out: Cell viability IC50, MOLM-14 cells, 72 h, Alamar Blue)?
**A.** > 10000 nM

**Q.** `CN(CCCNC(=O)COc1cccc2c1C(=O)N(C1CCC(=O)NC1=O)C2=O)C(C)(C)C=C(C#N)C(=O)N1CCC[C@@H](n2nc(-c3ccc(Oc4ccccc4)cc3)c3c(N)ncnc32)C1` (some centres unmarked) [RC-9] was tested. Which “Cell viability, MOML-14” value ([3]; drug concentration 1.00E-05 M) did it give?
**A.** -0.2322 and -0.06633 and -0.1327 and -0.8823 and -0.4179

**Q.** And the “Cell viability, MOML-14” value ([3]; drug concentration 1.60E-08 M)?
**A.** 85.6517 and 91.2637 and 79.403 and 91.5091 and 93.4859

**Q.** What about the “Cell viability, MOML-14” value ([3]; drug concentration 2.00E-06 M) of the same molecule?
**A.** 9.041 and 7.098 and 11.4959 and 8.756 and 8.279

**Q.** And the “Cell viability, MOML-14” value ([3]; drug concentration 3.20E-09 M)?
**A.** 93.4859 and 94.8192 and 76.9154 and 100.657 and 77.1542

**Q.** What about the “Cell viability, MOML-14” value ([3]; drug concentration 4.00E-07 M) of the same molecule?
**A.** 42.6932 and 44.9353 and 60.7695 and 44.0464 and 46.4279

**Q.** And the “Cell viability, MOML-14” value ([3]; drug concentration 6.40E-10 M)?
**A.** 113.612 and 82.5937 and 85.9834 and 109.612 and 104.358

**Q.** What about the “Cell viability, MOML-14” value ([3]; drug concentration 8.00E-08 M) of the same molecule?
**A.** 79.6219 and 80.8756 and 76.0199 and 82.7728 and 91.7612

**Q.** And the “Degradation at 200 nM (percentage of BTK degradation)” value ([4]; 200 nM, 24 h incubation)?
**A.** 30%

**Q.** Which “Cell viability, MOML-14” value ([3]; drug concentration 1.00E-05 M) does the source give for `CN(CCOCCNC(=O)CNc1ccc2c(c1)C(=O)N(C1CCC(=O)NC1=O)C2=O)C(C)(C)C=C(C#N)C(=O)N1CCC[C@@H](n2nc(-c3ccc(Oc4ccccc4)cc3)c3c(N)ncnc32)C1` (some centres unmarked) [RC-10] here?
**A.** 6.648 and 2.814 and 5.855 and 1.001 and 2.266

**Q.** What about the “Cell viability, MOML-14” value ([3]; drug concentration 1.60E-08 M) of the same molecule?
**A.** 84.9481 and 73.56 and 76.0529 and 61.3598 and 63.4939

**Q.** What about the “Cell viability, MOML-14” value ([3]; drug concentration 2.00E-06 M) of the same molecule?
**A.** 15.1841 and 8.971 and 14.3343 and 7.989 and 11.1237

**Q.** What about the “Cell viability, MOML-14” value ([3]; drug concentration 3.20E-09 M) of the same molecule?
**A.** 88.1209 and 77.847 and 69.5373 and 71.6336 and 68.102

**Q.** What about the “Cell viability, MOML-14” value ([3]; drug concentration 4.00E-07 M) of the same molecule?
**A.** 52.6534 and 38.4514 and 40.831 and 37.0727 and 36.6572

**Q.** What about the “Cell viability, MOML-14” value ([3]; drug concentration 6.40E-10 M) of the same molecule?
**A.** 87.0746 and 98.5269 and 68.2342 and 85.7413 and 74.9197

**Q.** What about the “Cell viability, MOML-14” value ([3]; drug concentration 8.00E-08 M) of the same molecule?
**A.** 70.5949 and 66.9688 and 60.3777 and 66.9311 and 50.1039

**Q.** What about the “BTK degradation (in words)” value ([4]; indicated doses, 24 h) of the same molecule?
**A.** cannot induce any BTK degradation
